These results are taken from patent US7786152B2, “Compound” (priority 2002, dated 2010).

For one data set, the target named is T1, 11 β-HSD type 2 (Rattus norvegicus, UniProt P50233).
T1 construct: Both the kidneys and livers were homogenised on ice in PBS-sucrose buffer; tissue Harlan Olac (rats); host or cells: Wistar rat kidney homogenate supernatant
T1 sequence (P50233 1-400): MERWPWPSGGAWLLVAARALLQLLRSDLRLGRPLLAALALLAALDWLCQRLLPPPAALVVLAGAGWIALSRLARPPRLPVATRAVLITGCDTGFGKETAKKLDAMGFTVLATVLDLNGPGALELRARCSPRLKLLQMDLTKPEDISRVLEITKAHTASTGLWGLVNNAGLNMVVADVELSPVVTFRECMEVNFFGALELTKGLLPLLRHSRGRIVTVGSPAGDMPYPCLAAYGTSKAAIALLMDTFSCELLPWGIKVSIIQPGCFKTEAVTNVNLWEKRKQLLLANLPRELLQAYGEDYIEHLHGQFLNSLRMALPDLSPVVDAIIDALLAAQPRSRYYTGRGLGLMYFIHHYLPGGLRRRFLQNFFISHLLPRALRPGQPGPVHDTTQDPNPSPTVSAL
As to the kind of experiment: 11 β-HSD type 2 inhibition, rat kidney homogenate, conversion F to E (radiometric TLC). Format: biochemical. The note with it: read-out: % inhibition of 11β HSD2 @ 10 μM, typical sd ± 5%, means n=2. As to the method: (§1) Enzymes—Rat livers and rat kidneys were obtained from normal Wistar rats (Harlan Olac, Bicester, Oxon, UK). Both the kidneys and livers were homogenised on ice in PBS-sucrose buffer (1 g/10 ml) using an Ultra-Turrax. After the livers and kidneys were homogenised the homogenate was centrifuged for five minutes at 4000 rpm. The supernatant obtained was removed and stored in glass vials at −20° C. The amount of protein per μl of rat liver and kidney cytosol was determined using the Bradford method.
The same procedure was used for the 11 β-HSD type 2 assay, the conversion F to E, to determine the amount of rat kidney to be used and the incubation time. Except this time the substrate solution contained ^3H—F and unlabelled F and the recovery contained ^14C-E and unlabelled E and cortisone has a Rf value of 0.65 on the TLC-plate.
(§2) In these assays the influence of different inhibitors on the 11 β-HSD activity both in reductive (type 1) and oxidative (type 2) directions were assessed. In the reductive direction E is the substrate and F the product and visa versa in the case of oxidation. The method described here is for the oxidative direction.
The substrate solution contained about 50,000 cpm/ml ^3H—F in PBS-sucrose and 0.5 μM F. 1 ml of the substrate solution was added to each tube, the inhibitors were also added, at a 10 μM concentration, to each tube except to the “control” and “blank” tubes. 150 μL was added to all tubes except to the blanks, this was done to correct for the amount of ^3H—F spontaneously formed. The tubes were incubated for 60 minutes in a mechanically shaken water bath at 37° C. The amount of kidney liver homogenate and incubation time used resulted from the enzyme- and time-dependency assay. After incubation 50 μL of recovery was added to correct for the losses made in the next steps, containing 5000 cpm/50 μL of ^14C-E and 50 μg/50 μL of unlabelled E (to visualise the spot on the TLC-plate). The aqueous mixture was then extracted with 4 ml of ether (2×30 sec cycle, vortex mix). After freezing the aqueous phase, the ether (upper) layer was decanted into smaller tubes and evaporated at 45° C. until completely dry. The residue was then re-dissolved in 6 drops of ether and transferred to a TLC-plate. The TLC-plate was developed in chloroform:methanol (9:1 v/v) solvent system, the TLC-plate ran for about 90 minutes until the solvent front had moved about 18 cm. The position of the product E was visualised under UV-light and cut out from the TLC-plate and put into scintillation vials. Radioactivity was eluted over 5 minutes with 0.5 ml methanol. 0.5 ml of PBS-sucrose and 10 ml of Ecoscint were then added and vortex mixed before counting in the scintillation counter. Before counting the samples, two total activity vials were prepared. These contained 0.5 ml of the substrate solution, 50 μL of the recovery, 0.5 ml of methanol and 10 ml of Ecoscint. These two total activity vials were needed to determine the amount of ^14C-E and ^3H—F added in the beginning to make the calculations.
To look at the percentage of inhibition four different concentrations, 1, 5, 10 and 20 μM, were used. The method for both the rat liver, type 1 the reductive, and rat kidney, type 2 the oxidative, stay the same throughout the entire experiment.
In this experiment the amount of rat liver homogenate and rat kidney homogenate added to each tube and the incubation time was determined. […] After drawing the graphs the optimal amount of rat liver cytosol and rat kidney cytosol and both their incubation times were selected. One important rule when selecting both variables, to select an amount of rat liver and rat kidney and incubation time on a linear part of the graph. This is done to avoid fluctuations in enzyme activity. The amount of rat liver cytosol selected was 25 μL and 90 minutes of incubation time, the amount of rat kidney cytosol selected was 150 μL and 60 minutes of incubation time. […]

In another data set the target is T2, 11 β-HSD type 1 (Rattus norvegicus, UniProt P16232).
T2 construct: Both the kidneys and livers were homogenised on ice in PBS-sucrose buffer; tissue Harlan Olac (rats); host or cells: Wistar rat liver homogenate supernatant
T2 sequence (P16232 whole entry): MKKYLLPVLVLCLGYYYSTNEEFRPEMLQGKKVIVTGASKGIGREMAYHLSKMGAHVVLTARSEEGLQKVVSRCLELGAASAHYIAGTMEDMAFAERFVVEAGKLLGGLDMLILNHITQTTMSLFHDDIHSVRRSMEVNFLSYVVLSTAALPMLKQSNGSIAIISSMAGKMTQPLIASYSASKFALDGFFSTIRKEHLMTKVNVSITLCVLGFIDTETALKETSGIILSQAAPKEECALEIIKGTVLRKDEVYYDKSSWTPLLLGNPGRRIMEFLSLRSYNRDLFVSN
As to the kind of experiment: 11 β-HSD type 1 inhibition, rat liver homogenate, conversion E to F (radiometric TLC). Format: biochemical. The note with it: read-out: % inhibition of 11β HSD1 @ 10 μM, 10 μM, typical sd ± 5%, means n=2. As to the method:
as §1
11 β-HSD type 1 is the enzyme responsible for the conversion E to F and this type of enzyme is present in rat liver. The substrate solution used in this assay contained 70,000 cpm/ml ^3H-E in PBS-sucrose and 0.5 μM of unlabelled E and co-factor NADPH (9 mg/10 ml of substrate solution). 1 ml of the substrate solution and the different amounts of rat liver homogenate was added to all tubes.
The amount of rat liver homogenate needed for an assay was determined by incubating the substrate solution with 25, 50, 100 and 150 μl for 30, 60, 90 and 120 minutes at 37° C. in a water bath with the tubes being mechanically shaken. After the incubation 50 μL of recovery solution was added, containing about 8,000 cpm/50 μL of ^14C—F and 50 μg/50 μL of unlabelled F for visualising the spot on the TLC-plate, to correct for the losses made in the next two steps. F was then extracted from the aqueous phase with 4 ml of ether (2×30 sec cycle, vortex mix). The aqueous phase was then frozen using dry-ice and the organic layer was decanted and poured into smaller tubes and evaporated. 6 drops of ether were then added to the small tubes to re-dissolve the residue which was transferred to an aluminium thin layer chromatography plate (TLC-plate). The TLC-plate was developed in a TLC tank under saturated conditions. The solvent system used was chloroform:methanol 9:1 (v/v). The F spots on the TLC-plate were visualised under UV-light and cut out from the TLC-plate (Rf=0.45). The spots from the TLC-plate were then put into scintillation vials and 0.5 ml of methanol was added to all vials to elute the radioactivity from the TLC-plate for 5 minutes. 10 ml of Ecoscint was added to the scintillation vials and they were put into the scintillation counter to count amount of product formed.
as §2
The substrate solution contained about 50,000 cpm/ml ^3H—F in PBS-sucrose and 0.5 μM F. 1 ml of the substrate solution was added to each tube, the inhibitors were also added, at a 10 μM concentration, to each tube except to the “control” and “blank” tubes. 150 μL was added to all tubes except to the blanks, this was done to correct for the amount of ^3H—F spontaneously formed. The tubes were incubated for 60 minutes in a mechanically shaken water bath at 37° C. The amount of kidney liver homogenate and incubation time used resulted from the enzyme- and time-dependency assay. After incubation 50 μL of recovery was added to correct for the losses made in the next steps, containing 5000 cpm/50 μL of ^14C-E and 50 μg/50 μL of unlabelled E (to visualise the spot on the TLC-plate). The aqueous mixture was then extracted with 4 ml of ether (2×30 sec cycle, vortex mix). After freezing the aqueous phase, the ether (upper) layer was decanted into smaller tubes and evaporated at 45° C. until completely dry. The residue was then re-dissolved in 6 drops of ether and transferred to a TLC-plate. The TLC-plate was developed in chloroform:methanol (9:1 v/v) solvent system, the TLC-plate ran for about 90 minutes until the solvent front had moved about 18 cm. The position of the product E was visualised under UV-light and cut out from the TLC-plate and put into scintillation vials. […]

Each structure is given as a SMILES string.

The compound `Cc1c(Cl)cccc1S(=O)(=O)Nc1ccc2c(c1)nc(C)n2-c1ccccc1` gave a melting point of 254 to 256 °C.

Compound `Cc1c(Cl)cccc1S(=O)(=O)Nc1ccc2nc(C)n(CCO)c2c1` gave a melting point of 213 to 214.5 °C.

The compound `Cc1c(Cl)cccc1S(=O)(=O)Nc1ccc2c(c1)nc(C)n2CCO` displayed a melting point of 245 to 247 °C.

As for `Cc1c(Cl)cccc1S(=O)(=O)Nc1ccc2nc(C)n(C)c2c1`, the melting point lay within 265 to 266 °C.

As for `Cc1nc2cc(NS(=O)(=O)c3c(C)c(C)cc(C)c3C)ccc2s1` [compound 706], the inhibition at 10 µM turned out to be 7% at 11 β-HSD type 2 and 29% at 11 β-HSD type 1.

For the compound `COc1ccc(S(=O)(=O)Nc2ccc3sc(C)nc3c2)cc1OC` [compound 707], the figures for the inhibition at 10 µM at 11 β-HSD type 2 and at 11 β-HSD type 1 were 11% and 21%, respectively.

`CC(=O)Nc1ccc(S(=O)(=O)Nc2ccc3sc(C)nc3c2)cc1` [compound 711]: the results for the inhibition at 10 µM on 11 β-HSD type 2 and on 11 β-HSD type 1 were 6% and 37%, respectively.

Take `Cc1nc2cc(NS(=O)(=O)c3c(F)c(F)c(F)c(F)c3F)ccc2s1` [compound 712]: the inhibition at 10 µM at 11 β-HSD type 2 came out at 3%; on 11 β-HSD type 1 it was 24%.

Turning to `Cc1nc2cc(NS(=O)(=O)c3c(C)c(C)c4c(c3C)CCC(C)(C)O4)ccc2s1` [compound 713], the results for the inhibition at 10 µM at 11 β-HSD type 2 and at 11 β-HSD type 1 were 3% and 26%, respectively.

Consider `CC(=O)c1ccccc1S(=O)(=O)N(c1ccc2sc(C)nc2c1)S(=O)(=O)c1ccccc1C(C)=O` [compound 730], for which the inhibition at 10 µM at 11 β-HSD type 2 came out at 9%; at 11 β-HSD type 1, 32%.

`Cc1nc2cc(N(S(=O)(=O)c3ccccc3C#N)S(=O)(=O)c3ccccc3C#N)ccc2s1` [compound 731]: the inhibition at 10 µM at 11 β-HSD type 2 came out at 12%; at 11 β-HSD type 1 it was 45%.

With `Cc1c(Cl)cccc1S(=O)(=O)Nc1ccc2ncsc2c1` [compound 750], the inhibition at 10 µM on 11 β-HSD type 2 amounted to 10%; on 11 β-HSD type 1, 4%.

Consider `CCOC(=O)CSc1nc2ccc(NS(=O)(=O)c3cccc(Cl)c3C)cc2s1` [compound 752], for which the inhibition at 10 µM on 11 β-HSD type 2 was 1%; at 11 β-HSD type 1 it was 5%.

Turning to `Cc1c(Cl)cccc1S(=O)(=O)Nc1ccc2[nH]c(=O)sc2c1` [compound 753], the figures for the inhibition at 10 µM at 11 β-HSD type 2 and on 11 β-HSD type 1 were 2% and 8%, respectively.

Take `COCCSc1nc2ccc(NS(=O)(=O)c3cccc(Cl)c3C)cc2s1` [compound 754]: the figures for the inhibition at 10 µM on 11 β-HSD type 2 and on 11 β-HSD type 1 were 6% and 20%, respectively.

For `CCN(CC)C(=O)CSc1nc2ccc(NS(=O)(=O)c3cccc(Cl)c3C)cc2s1` [compound 755], the figures for the inhibition at 10 µM at 11 β-HSD type 2 and on 11 β-HSD type 1 were 8% and 21%, respectively.

The term melting point denotes the temperature, or range, at which the solid turns liquid. Usually inhibition stands for the drop in the measured response relative to a control, in per cent.
